Test results taken from PubChem BioAssay AID1963435 (Molecular Pharmacology Branch, DTP, NCI, 2024).
“And” between values parts separate entries of the source, which are not always exact repeats. Equal values may be shown once.

Test system: PANC-1 complex spheroid growth, percent test/control
Experiment: Anticancer human tumor PANC-1 cell line growth inhibition [Asc];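 note: spheroids exposed to agents for 7 days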;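 for viability, T/C: percent viability relative to DMSO vehicle wells taken as 100%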
Details: for viability, T/C: stronger effect = lower value
Method in brief: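 Tumor cells were grown as multicellular spheroids with stromal HUVEC and mesenchymal stem cells and treated singly or in combination. Concentrations fell in half-log steps from the clinical Cmax, or from 10 microM where none was known.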

[1] = curve of first compound, second compound 0.00316 µM
[2] = curve of first compound, second compound 0.01 µM
[3] = curve of first compound, second compound 0.0316 µM
[4] = curve of first compound, second compound 0.1 µM
[5] = curve of first compound, second compound 0.316 µM
[6] = curve of first compound, second compound 1 µM

Question: For `Cn1ncnc1[C@H]1c2n[nH]c(=O)c3cc(F)cc(c23)N[C@@H]1c1ccc(F)cc1` + CNC(C)C(=O)NC1CN(S(=O)(=O)c2cccc(S(=O)(=O)N3CCC4CCC(C(=O)NC(c5ccccc5)c5ccccc5)N4C(=O)C(NC(=O)C(C)NC)C3)c2)CCC2CCC(C(=O)NC(c3ccccc3)c3ccccc3)N2C1=O, which IC50 [1] is on record?
Answer: Its IC50 is greater than 0.1 µM.

Question: And the IC50 [2]?
Answer: The IC50 was greater than 0.1 µM.

Question: And the IC50 [3]?
Answer: Its IC50 is greater than 0.1 µM.

Question: And the IC50 [4]?
Answer: Its IC50 is greater than 0.1 µM.

Question: And the IC50 [5]?
Answer: Its IC50 is greater than 0.1 µM.

Question: What about the IC50 [6] of the same molecule?
Answer: The IC50 was greater than 0.1 µM.

Question: And the viability, T/C (second compound 0.00316 µM, first compound 0.000316 µM)?
Answer: Its viability, T/C is 110%.

Question: And the viability, T/C (second compound 0.00316 µM, first compound 0.001 µM)?
Answer: The viability, T/C was 117%.

Question: And the viability, T/C (second compound 0.00316 µM, first compound 0.00316 µM)?
Answer: The viability, T/C was 128%.

Question: What about the viability, T/C (second compound 0.00316 µM, first compound 0.01 µM) of the same molecule?
Answer: The viability, T/C was 114%.

Question: And the viability, T/C (second compound 0.00316 µM, first compound 0.0316 µM)?
Answer: The viability, T/C was 113%.

Question: And the viability, T/C (second compound 0.00316 µM, first compound 0.1 µM)?
Answer: Its viability, T/C is 109%.

Question: What about the viability, T/C (second compound 0.01 µM, first compound 0.000316 µM) of the same molecule?
Answer: The viability, T/C was 105%.

Question: And the viability, T/C (second compound 0.01 µM, first compound 0.001 µM)?
Answer: Its viability, T/C is 108%.

Question: What about the viability, T/C (second compound 0.01 µM, first compound 0.00316 µM) of the same molecule?
Answer: The viability, T/C was 99.6%.

Question: And the viability, T/C (second compound 0.01 µM, first compound 0.01 µM)?
Answer: Its viability, T/C is 117%.

Question: And the viability, T/C (second compound 0.01 µM, first compound 0.0316 µM)?
Answer: Its viability, T/C is 110%.

Question: What about the viability, T/C (second compound 0.01 µM, first compound 0.1 µM) of the same molecule?
Answer: The viability, T/C was 111%.

Question: What about the viability, T/C (second compound 0.0316 µM, first compound 0.000316 µM) of the same molecule?
Answer: The viability, T/C was 96.8%.

Question: What about the viability, T/C (second compound 0.0316 µM, first compound 0.001 µM) of the same molecule?
Answer: Its viability, T/C is 92.8%.

Question: What about the viability, T/C (second compound 0.0316 µM, first compound 0.00316 µM) of the same molecule?
Answer: Its viability, T/C is 96.6%.

Question: And the viability, T/C (second compound 0.0316 µM, first compound 0.01 µM)?
Answer: The viability, T/C was 109%.

Question: What about the viability, T/C (second compound 0.0316 µM, first compound 0.0316 µM) of the same molecule?
Answer: The viability, T/C was 108%.

Question: What about the viability, T/C (second compound 0.0316 µM, first compound 0.1 µM) of the same molecule?
Answer: Its viability, T/C is 113%.

Question: What about the viability, T/C (second compound 0.1 µM, first compound 0.000316 µM) of the same molecule?
Answer: The viability, T/C was 94.3%.

Question: What about the viability, T/C (second compound 0.1 µM, first compound 0.001 µM) of the same molecule?
Answer: The viability, T/C was 102%.

Question: What about the viability, T/C (second compound 0.1 µM, first compound 0.00316 µM) of the same molecule?
Answer: The viability, T/C was 97.3%.

Question: And the viability, T/C (second compound 0.1 µM, first compound 0.01 µM)?
Answer: Its viability, T/C is 101%.

Question: What about the viability, T/C (second compound 0.1 µM, first compound 0.0316 µM) of the same molecule?
Answer: The viability, T/C was 109%.

Question: What about the viability, T/C (second compound 0.1 µM, first compound 0.1 µM) of the same molecule?
Answer: Its viability, T/C is 115%.

Question: And the viability, T/C (second compound 0.316 µM, first compound 0.000316 µM)?
Answer: The viability, T/C was 109%.

Question: And the viability, T/C (second compound 0.316 µM, first compound 0.001 µM)?
Answer: Its viability, T/C is 98.4%.

Question: And the viability, T/C (second compound 0.316 µM, first compound 0.00316 µM)?
Answer: Its viability, T/C is 97.5%.

Question: What about the viability, T/C (second compound 0.316 µM, first compound 0.01 µM) of the same molecule?
Answer: Its viability, T/C is 99.6%.

Question: And the viability, T/C (second compound 0.316 µM, first compound 0.0316 µM)?
Answer: The viability, T/C was 111%.

Question: And the viability, T/C (second compound 0.316 µM, first compound 0.1 µM)?
Answer: The viability, T/C was 102%.

Question: What about the viability, T/C (second compound 1 µM, first compound 0.000316 µM) of the same molecule?
Answer: Its viability, T/C is 87.3%.

Question: What about the viability, T/C (second compound 1 µM, first compound 0.001 µM) of the same molecule?
Answer: The viability, T/C was 107%.

Question: What about the viability, T/C (second compound 1 µM, first compound 0.00316 µM) of the same molecule?
Answer: The viability, T/C was 111%.

Question: What about the viability, T/C (second compound 1 µM, first compound 0.01 µM) of the same molecule?
Answer: The viability, T/C was 99%.

Question: What about the viability, T/C (second compound 1 µM, first compound 0.0316 µM) of the same molecule?
Answer: Its viability, T/C is 95.5%.

Question: And the viability, T/C (second compound 1 µM, first compound 0.1 µM)?
Answer: Its viability, T/C is 102%.

Question: Which results are given for `NC1CCC(NC2CC2c2ccccc2)CC1` (centres undefined)?
Answer: viability, T/C (compound 0.000316 µM): 98.4% and 88.6% and 107%; viability, T/C (compound 0.001 µM): 100% and 93.4% and 91.5%; viability, T/C (compound 0.00316 µM): 100% and 110% and 93.7%; viability, T/C (compound 0.01 µM): 98.2% and 85.6% and 90.5%; viability, T/C (compound 0.0316 µM): 93.5% and 101% and 93.9%; viability, T/C (compound 0.1 µM): 107% and 91.3% and 97.6%; IC50 (curve of compound): > 0.1 µM

Question: Which results are given for `Cc1nc(N2CCC3(CC2)COC(C)C3N)c(CO)nc1Sc1ccnc(N)c1Cl` (centres undefined) + CNC(C)C(=O)NC1CN(S(=O)(=O)c2cccc(S(=O)(=O)N3CCC4CCC(C(=O)NC(c5ccccc5)c5ccccc5)N4C(=O)C(NC(=O)C(C)NC)C3)c2)CCC2CCC(C(=O)NC(c3ccccc3)c3ccccc3)N2C1=O?
Answer: IC50 [1]: > 3 µM; IC50 [2]: > 3 µM; IC50 [3]: > 3 µM; IC50 [4]: > 3 µM; IC50 [5]: > 3 µM; IC50 [6]: > 3 µM; viability, T/C (second compound 0.00316 µM, first compound 0.00949 µM): 94.8%; viability, T/C (second compound 0.00316 µM, first compound 0.03 µM): 85%; viability, T/C (second compound 0.00316 µM, first compound 0.0949 µM): 96.7%; viability, T/C (second compound 0.00316 µM, first compound 0.3 µM): 84.3%; viability, T/C (second compound 0.00316 µM, first compound 0.949 µM): 87.7%; viability, T/C (second compound 0.00316 µM, first compound 3 µM): 87.1%; viability, T/C (second compound 0.01 µM, first compound 0.00949 µM): 91.1%; viability, T/C (second compound 0.01 µM, first compound 0.03 µM): 82.6%; viability, T/C (second compound 0.01 µM, first compound 0.0949 µM): 79.7%; viability, T/C (second compound 0.01 µM, first compound 0.3 µM): 89.4%; viability, T/C (second compound 0.01 µM, first compound 0.949 µM): 85.8%; viability, T/C (second compound 0.01 µM, first compound 3 µM): 95.1%; viability, T/C (second compound 0.0316 µM, first compound 0.00949 µM): 93.4%; viability, T/C (second compound 0.0316 µM, first compound 0.03 µM): 79.9%; viability, T/C (second compound 0.0316 µM, first compound 0.0949 µM): 92.8%; viability, T/C (second compound 0.0316 µM, first compound 0.3 µM): 86.3%; viability, T/C (second compound 0.0316 µM, first compound 0.949 µM): 87.6%; viability, T/C (second compound 0.0316 µM, first compound 3 µM): 78.9%; viability, T/C (second compound 0.1 µM, first compound 0.00949 µM): 85.3%; viability, T/C (second compound 0.1 µM, first compound 0.03 µM): 93%; viability, T/C (second compound 0.1 µM, first compound 0.0949 µM): 90%; viability, T/C (second compound 0.1 µM, first compound 0.3 µM): 83.8%; viability, T/C (second compound 0.1 µM, first compound 0.949 µM): 90.9%; viability, T/C (second compound 0.1 µM, first compound 3 µM): 89.5%; viability, T/C (second compound 0.316 µM, first compound 0.00949 µM): 89.5%; viability, T/C (second compound 0.316 µM, first compound 0.03 µM): 84.1%; viability, T/C (second compound 0.316 µM, first compound 0.0949 µM): 86.7%; viability, T/C (second compound 0.316 µM, first compound 0.3 µM): 84.4%; viability, T/C (second compound 0.316 µM, first compound 0.949 µM): 83.4%; viability, T/C (second compound 0.316 µM, first compound 3 µM): 81.2%; viability, T/C (second compound 1 µM, first compound 0.00949 µM): 86.5%; viability, T/C (second compound 1 µM, first compound 0.03 µM): 89.8%; viability, T/C (second compound 1 µM, first compound 0.0949 µM): 82.6%; viability, T/C (second compound 1 µM, first compound 0.3 µM): 82.7%; viability, T/C (second compound 1 µM, first compound 0.949 µM): 75.6%; viability, T/C (second compound 1 µM, first compound 3 µM): 85.9%

Question: How did the viability, T/C (compound 0.00949 µM) turn out when `CCN1C(C(=O)NC23CCC(C(=O)O)(CC2)CC3)C(c2cccc(Cl)c2F)C2(C(=O)Nc3cc(Cl)ccc32)C12CCCCC2` (centres undefined) was run?
Answer: The viability, T/C was 103% [middle of 9 runs].

Question: What about the viability, T/C (compound 0.03 µM) of the same molecule?
Answer: The viability, T/C was 102% [middle of 9 runs].

Question: And the viability, T/C (compound 0.0949 µM)?
Answer: Its viability, T/C is 103% [middle of 9 runs].

Question: And the viability, T/C (compound 0.3 µM)?
Answer: The viability, T/C was 100% [middle of 9 runs].

Question: What about the viability, T/C (compound 0.949 µM) of the same molecule?
Answer: The viability, T/C was 103% [middle of 9 runs].

Question: And the viability, T/C (compound 3 µM)?
Answer: The viability, T/C was 112% [middle of 9 runs].

Question: And the IC50 (compound alone, run of 11/07/2022)?
Answer: Its IC50 is greater than 3 µM.

Question: What about the IC50 (curve of compound) of the same molecule?
Answer: Its IC50 is greater than 3 µM.
